Drawing on US12534457B2, “Heteroaryl derivative compounds, and uses thereof” (Voronoi Inc., priority 2021, dated 2026), this text covers GI50 for 27 molecules.

One assay concerns Ba/F3 cells expressing EGFR Del19/C797S (EGFR DC). The assay can be described thus: Proliferation inhibitory activity, Ba/F3 cells expressing EGFR Del19/C797S (CellTiter-Glo). The format is cell-based. As to conditions: 72 hours of compound treatment. Here is the method: The following experiments were performed to evaluate the inhibitory activity of the compounds according to the present disclosure on Ba/F3 proliferation expressing EGFR C797S, L861Q, G719A, S768I, L718Q, and/or G724S mutations.
For Ba/F3 cells, RPMI-1640 containing 10% FBS and 5 ng/ml IL-3 (R&D Systems) was used. Transduced Ba/F3 cells were cultured after adding 1 μg/ml puromycin (Invitrogen) to the same medium.
At 24 hours before treatment with the compounds, 3000 to 5000 cells were aliquoted into each well of a white clear bottom 96 well plate (Corning). The compounds were diluted in dimethyl sulfoxide (3 times dilution, 12 concentrations in total), and injected in an amount of 1 μl so that the final concentration was 0.2 nM to 5 uM. For measurement of living cells, after 72 hours of compound treatment, the cells were stored at room temperature for 10 min using CellTiter-Glo luminescentcell-viability reagent (Promega), and then luminescence intensity was measured using a reader (SynergyNeo, Biotek). Each test was repeated three times. Result values were calculated as the cell growth rate (%) compared to the control. The graphs were created using GraphPad Prism version 8.3.0 program and the GI50 values were calculated.
(In general: In ATP-based viability assays light output follows the ATP content of the culture.)
As for `COc1cc(Nc2cc(N3OCC[C@@H]3c3cc(F)cc(F)c3)ncn2)ccc1N1CCC(N2CCN(C)CC2)CC1` [Example 26], the GI50 was less than 0.05 µM.

The assay is the same for the next values; noted with them: Mus musculus, BaF3, 72 hours of compound treatment.
For the molecule `CN1CCN(c2ccc(Nc3cc(N4OCC[C@H]4c4ccccc4)ncn3)cc2)CC1` [Example 2, (S)—N-(4-(4-methylpiperazin-1-yl)phenyl)-6-(3-phenylisoxazolidin-2-yl)pyrimidin-4-amine], the GI50 lay in the range of 0.05 to 0.5 µM.
As to `CN1CCN(c2ccc(Nc3cc(N4OCC[C@@H]4Cc4ccccc4)ncn3)cc2)CC1` [Example 3, (S)-6-(3-benzylisoxazolidin-2-yl)-N-(4-(4-methylpiperazin-1-yl)phenyl)pyrimidin-4-amine], the GI50 was less than 0.05 µM.
For `CN1CCN(Cc2cc(Nc3cc(N4OCC[C@@H]4c4cc(F)cc(F)c4)ncn3)cc(C(C)(C)C#N)c2)CC1` [Example 14, (R)-2-(3-((6-(3-(3,5-difluorophenyl)isoxazolidin-2-yl)pyrimidin-4-yl)amino)-5-((4-methylpiperazin-1-yl)methyl)phenyl)-2-methylpropanenitrile], the GI50 fell in the range of 0.05 to 0.5 µM.
Turning to `CN1CCN(C2CCN(c3ccc(Nc4cc(N5OCC[C@@H]5c5cc(F)cc(F)c5)ncn4)cc3)CC2)CC1` [Example 17, (R)-6-(3-(3,5-difluorophenyl)isoxazolidin-2-yl)-N-(4-(4-(4-methylpiperazin-1-yl)piperidin-1-yl)phenyl)pyrimidin-4-amine], the GI50 fell in the range of 0.05 to 0.5 µM.
Consider `CN1CCN(c2ccc(Nc3cc(N4OCC[C@@H]4c4cc(F)cc(F)c4)ncn3)cc2)CC1` [Example 18, (R)-6-(3-(3,5-difluorophenyl)isoxazolidin-2-yl)-N-(4-(4-methylpiperazin-1-yl)phenyl)pyrimidin-4-amine], for which the GI50 was 0.05 to 0.5 µM.
For `CN(C)CCN(C)c1ccc(Nc2cc(N3OCC[C@@H]3c3cc(F)cc(F)c3)ncn2)cc1` [Example 19, (R)—N^1-(6-(3-(3,5-difluorophenyl)isoxazolidin-2-yl)pyrimidin-4-yl)-N^4-(2-(dimethylamino)ethyl)-N^4-methylbenzene-1,4-diamine], the GI50 was 0.05 to 0.5 µM.
In the case of `COc1cc(N2CCC(N3CCN(C)CC3)CC2)c(C)cc1Nc1cc(N2OCC[C@@H]2c2cc(F)cc(F)c2)ncn1` [Example 20, (R)-6-(3-(3,5-difluorophenyl)isoxazolidin-2-yl)-N-(2-methoxy-5-methyl-4-(4-(4-methylpiperazin-1-yl)piperidin-1-yl)phenyl)pyrimidin-4-amine], the GI50 was less than 0.05 µM.
For `COc1cc(N2CCC(N3CCN(C)CC3)CC2)ccc1Nc1cc(N2OCC[C@@H]2c2cc(F)cc(F)c2)ncn1` [Example 21, (R)-6-(3-(3,5-difluorophenyl)isoxazolidin-2-yl)-N-(2-methoxy-4-(4-(4-methylpiperazin-1-yl)piperidin-1-yl)phenyl)pyrimidin-4-amine], the GI50 is less than 0.05 µM.
In the case of `COc1cc(N2CCC(N(C)C)CC2)ccc1Nc1cc(N2OCC[C@@H]2c2cc(F)cc(F)c2)ncn1` [Example 22, (R)-6-(3-(3,5-difluorophenyl)isoxazolidin-2-yl)-N-(4-(4-(dimethylamino)piperidin-1-yl)-2-methoxyphenyl)pyrimidin-4-amine], the GI50 was less than 0.05 µM.
For the molecule `CN1CCN(C2CCN(c3ccc(Nc4cc(N5OCC[C@@H]5c5cc(F)cc(F)c5)ncn4)cc3C(F)(F)F)CC2)CC1` [Example 23, (R)-6-(3-(3,5-difluorophenyl)isoxazolidin-2-yl)-N-(4-(4-(4-methylpiperazin-1-yl)piperidin-1-yl)-3-(trifluoromethyl)phenyl)pyrimidin-4-amine], the GI50 fell in the range of 0.05 to 0.5 µM.
As to `CN1CCN(C2CCN(c3ccc(Nc4cc(N5OCC[C@@H]5c5cc(F)cc(F)c5)ncn4)cc3S(C)(=O)=O)CC2)CC1` [Example 24, (R)-6-(3-(3,5-difluorophenyl)isoxazolidin-2-yl)-N-(4-(4-(4-methylpiperazin-1-yl)piperidin-1-yl)-3-(methylsulfonyl)phenyl)pyrimidin-4-amine], the GI50 lay within 0.05 to 0.5 µM.
The same measure, in the same setting: as for `CCc1cc(Nc2cc(N3OCC[C@@H]3c3cc(F)cc(F)c3)ncn2)c(OC)cc1N1CCC(N2CCN(C)CC2)CC1` [Example 25, (R)-6-(3-(3,5-difluorophenyl)isoxazolidin-2-yl)-N-(5-ethyl-2-methoxy-4-(4-(4-methylpiperazin-1-yl)piperidin-1-yl)phenyl)pyrimidin-4-amine], the figure is less than 0.05 µM.
On the same count and under the same terms, as for `COc1cc(N2CCC(N3CCN(C)CC3)CC2)ccc1Nc1cc(N2OCC[C@@H]2c2cccc(C(F)(F)F)c2)ncn1` [Example 27, (R)—N-(2-methoxy-4-(4-(4-methylpiperazin-1-yl)piperidin-1-yl)phenyl)-6-(3-(3-(trifluoromethyl)phenyl)isoxazolidin-2-yl)pyrimidin-4-amine], the figure is 0.05 to 0.5 µM; as for `COc1cc(N2CCC(N3CCN(C)CC3)CC2)ccc1Nc1cc(N2OCC[C@@H]2c2cccc(C(F)(F)F)c2F)ncn1` [Example 28, (R)-6-(3-(2-fluoro-3-(trifluoromethyl)phenyl)isoxazolidin-2-yl)-N-(2-methoxy-4-(4-(4-methylpiperazin-1-yl)piperidin-1-yl)phenyl)pyrimidin-4-amine], 0.05 to 0.5 µM.
As to `COc1cc(N2CCC(N3CCN(C)CC3)CC2)ccc1Nc1cc(N2OCC[C@@H]2c2cccc(F)c2)ncn1` [Example 29, (R)-6-(3-(3-fluorophenyl)isoxazolidin-2-yl)-N-(2-methoxy-4-(4-(4-methylpiperazin-1-yl)piperidin-1-yl)phenyl)pyrimidin-4-amine], the GI50 was less than 0.05 µM.
For the molecule `COc1cc(N2CCC(N3CCN(C)CC3)CC2)ccc1Nc1cc(N2OCC[C@@H]2c2cc(F)ccc2F)ncn1` [Example 30, (R)-6-(3-(2,5-difluorophenyl)isoxazolidin-2-yl)-N-(2-methoxy-4-(4-(4-methylpiperazin-1-yl)piperidin-1-yl)phenyl)pyrimidin-4-amine], the concentration for 50% growth inhibition (GI50) was less than 0.05 µM.
Same read-out and setting: the same measure for `COc1cc(N2CCC(N3CCN(C)CC3)CC2)ccc1Nc1cc(N2OCC[C@@H]2c2ccc(F)c(Cl)c2)ncn1` [Example 31, (R)-6-(3-(3-chloro-4-fluorophenyl)isoxazolidin-2-yl)-N-(2-methoxy-4-(4-(4-methylpiperazin-1-yl)piperidin-1-yl)phenyl)pyrimidin-4-amine]: less than 0.05 µM; for `COc1cc(N2CCC(N3CCN(C)CC3)CC2)ccc1Nc1cc(N2OCC[C@@H]2c2cccc(F)c2F)ncn1` [Example 32, (R)-6-(3-(2,3-difluorophenyl)isoxazolidin-2-yl)-N-(2-methoxy-4-(4-(4-methylpiperazin-1-yl)piperidin-1-yl)phenyl)pyrimidin-4-amine]: less than 0.05 µM; for `COc1cc(N2CCC(N3CCN(C)CC3)CC2)ccc1Nc1cc(N2OCC[C@@H]2c2ccc(F)cc2)ncn1` [Example 33, (R)-6-(3-(4-fluorophenyl)isoxazolidin-2-yl)-N-(2-methoxy-4-(4-(4-methylpiperazin-1-yl)piperidin-1-yl)phenyl)pyrimidin-4-amine]: less than 0.05 µM.
Same read-out and setting: the same measure for `COc1cc(N2CCC(N3CCN(C)CC3)CC2)ccc1Nc1cc(N2OCC[C@@H]2c2cccs2)ncn1` [Example 35, (R)—N-(2-methoxy-4-(4-(4-methylpiperazin-1-yl)piperidin-1-yl)phenyl)-6-(3-(thiophen-2-yl)isoxazolidin-2-yl)pyrimidin-4-amine]: less than 0.05 µM.
For the molecule `COc1cc(N2CCC(N3CCN(C)CC3)CC2)ccc1Nc1cc(N2OCC[C@@H]2c2cccc3ccccc23)ncn1` [Example 36, (R)—N-(2-methoxy-4-(4-(4-methylpiperazin-1-yl)piperidin-1-yl)phenyl)-6-(3-(naphthalen-1-yl)isoxazolidin-2-yl)pyrimidin-4-amine], the GI50 lay within 0.05 to 0.5 µM.
For the molecule `COc1cc(N2CCC(N3CCN(C)CC3)CC2)ccc1Nc1cc(N2OCC[C@@H]2c2ccc(C)nc2)ncn1` [Example 38, (R)—N-(2-methoxy-4-(4-(4-methylpiperazin-1-yl)piperidin-1-yl)phenyl)-6-(3-(6-methylpyridin-3-yl)isoxazolidin-2-yl)pyrimidin-4-amine], the GI50 is 0.05 to 0.5 µM.
In the case of `COc1cccc([C@H]2CCON2c2cc(Nc3ccc(N4CCC(N5CCN(C)CC5)CC4)cc3OC)ncn2)c1` [Example 41, (R)—N-(2-methoxy-4-(4-(4-methylpiperazin-1-yl)piperidin-1-yl)phenyl)-6-(3-(3-methoxyphenyl)isoxazolidin-2-yl)pyrimidin-4-amine], the GI50 is 0.05 to 0.5 µM.
Take `CN1CCC(N2CCN3c4ccc(Nc5cc(N6OCC[C@@H]6c6ccccc6)ncn5)cc4OC[C@H]3C2)CC1` [Example 48, (R)-3-(1-methylpiperidin-4-yl)-N-(6-((R)-3-phenylisoxazolidin-2-yl)pyrimidin-4-yl)-1,2,3,4,4a,5-hexahydrobenzo[b]pyrazino[1,2-d][1,4]oxazin-8-amine]: the GI50 is less than 0.05 µM.
For `COc1cc2c(cc1Nc1cc(N3OCC[C@@H]3c3ccccc3)ncn1)OC[C@H]1C[C@@H](N3CCN(C4CC4)CC3)CCN21` [Example 49, (6aR,8S)-8-(4-cyclopropylpiperazin-1-yl)-2-methoxy-N-(6-((R)-3-phenylisoxazolidin-2-yl)pyrimidin-4-yl)-6,6a,7,8,9,10-hexahydrobenzo[b]pyrido[1,2-d] [1,4]oxazin-3-amine], the GI50 is less than 0.05 µM.
On to `Cc1cc(N2CCC(N3CCN(C)CC3)CC2)ccc1Nc1cc(N2OCC[C@@H]2c2ccccc2)ncn1` [Example 52, (R)—N-(2-methyl-4-(4-(4-methylpiperazin-1-yl)piperidin-1-yl)phenyl)-6-(3-phenylisoxazolidin-2-yl)pyrimidin-4-amine], for which the GI50 is less than 0.05 µM.

The term GI50 denotes the concentration giving 50% growth inhibition.
